From the supplement of paper PMC11061612

Tests used:
[1] = tested on: MDA-MB-175-VII (Breast Carcinoma); assay: combination Emax (second highest fraction inhibited in the dose matrix, 72 h); higher = more inhibition; extreme values may be limits of the assay
How it was run: (§1)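 Bliss excess equals the observed combination effect minus the expected value EA + EB − EA·EB, where EA and EB are the effects of each agent alone. Combination Emax is the second-highest inhibition within the matrix. Inhibition was scaled from CellTiter-Glo 2.0 luminescence, with 0 set by vehicle wells and 1 by blank wells, after 72 hours of two-drug dosing of cells plated in 1536-well plates.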

[2] = tested on: NCI-H1048 (Small Cell Lung Carcinoma); assay: as above
How it was run: as §1

[3] = tested on: SCC90 (Head and Neck Carcinoma); assay: as above
How it was run: as §1

SK-N-DZ (Neuroblastoma) [4] = assay: as above
How it was run: as §1

[5] = tested on: BT-474 (Breast Carcinoma); assay: as above
How it was run: as §1

[6] = tested on: NCI-H1648 (Lung Adenocarcinoma); assay: as above
How it was run: as §1

HT-144 (Melanoma) = assay: as above
How it was run: as §1

GCIY (Gastric Carcinoma) = assay: as above
How it was run: as §1

[7] = tested on: TOV-21G (Ovarian Carcinoma); assay: as above
How it was run: as §1

[8] = tested on: NCI-H2023 (Non-Small Cell Lung Carcinoma); assay: as above
How it was run: as §1

[9] = tested on: NCI-H2170 (Squamous Cell Lung Carcinoma); assay: as above
How it was run: as §1

[10] = tested on: L-363 (Plasma Cell Myeloma); assay: as above
How it was run: as §1

[11] = tested on: Daudi (Burkitt's Lymphoma); assay: Bliss excess, mean over the matrix (fraction); higher = more synergy
How it was run: as §1

[12] = tested on: JJN-3 (Plasma Cell Myeloma); assay: as above
How it was run: as §1

[13] = tested on: RPMI-8402 (T-Lymphoblastic Leukemia); assay: as above
How it was run: as §1

[14] = tested on: NCI-H1048 (Small Cell Lung Carcinoma); assay: as above
How it was run: as §1

[15] = tested on: SCC90 (Head and Neck Carcinoma); assay: as above
How it was run: as §1

A375 (Melanoma) = assay: as above
How it was run: as §1

SK-N-DZ (Neuroblastoma) [16] = assay: as above
How it was run: as §1

[17] = tested on: GRANTA-519 (B-Cell Non-Hodgkin's Lymphoma); assay: as above
How it was run: as §1

Row | Compound | combination Emax [1] | combination Emax [2] | combination Emax [3] | combination Emax (SK-N-DZ (Neuroblastoma) [4]) | combination Emax [5] | combination Emax [6] | combination Emax (HT-144 (Melanoma)) | combination Emax (GCIY (Gastric Carcinoma)) | combination Emax [7] | combination Emax [8] | combination Emax [9] | combination Emax [10] | Bliss excess [11] | Bliss excess [12] | Bliss excess [13] | Bliss excess [14] | Bliss excess [15] | Bliss excess (A375 (Melanoma)) | Bliss excess (SK-N-DZ (Neuroblastoma) [16]) | Bliss excess [17]
1 | COc1cccc(OCCCN)c1-c1cc(Nc2cnc(C#N)cn2)n[nH]1 [Prexasertib] + CN(C)CCCOc1ccc(-c2ccc3ncc4c(c3c2)n(C2CCOCC2)c(=O)n4C)cn1 [AZD0156] (first compound max 1 µM, 7x7, partner max 1 µM) | 0.327 | 0.685 | 0.737 | 1 | 0.237 | 0.768 | 0.744 | 0.853 | 0.621 | 0.806 | 0.868 | 0.992 | -0.0041 | 0.0057 | -0.0172 | -0.0023 | -0.0634 | 0.0098 | 0.0108 | -0.035
2 | Cc1c2c(nn1C)CSCc1cc(n(C)n1)CSc1cc(c3ccccc3c1)OCCCc1c(C(=O)O)n(C)c3c-2c(Cl)ccc13 [AZD5991] + Cc1cc2ncnn2cc1Nc1ncc2c(n1)n(C1CCOCC1)c(=O)n2C [AZD7648] (first compound max 1 µM, 7x7, partner max 10 µM) | 0.263 | 0.988 | 0.937 | 0.207 | 0.301 | 0.892 | 0.885 | 0.526 | – | 0.441 | 0.397 | 1 | 0.0041 | 0.0324 | – | -0.0227 | -0.029 | -0.0244 | -0.0564 | -0.0268
3 | CCc1c2c(nc3ccc(O)cc13)-c1cc3c(c(=O)n1C2)COC(=O)[C@]3(O)CC [SN-38] + CN(C)CCCOc1ccc(-c2ccc3ncc4c(c3c2)n(C2CCOCC2)c(=O)n4C)cn1 [AZD0156] (first compound max 0.3 µM, 7x7, partner max 1 µM) | 0.631 | 0.968 | 0.423 | 0.901 | 0.0708 | 0.875 | 0.753 | 0.8 | 0.574 | 0.834 | 0.919 | 0.559 | 0.0078 | 0.0183 | 0.073 | 0.0147 | 0.0059 | 0.0168 | 0.0604 | -0.0359
4 | Cc1c2c(nn1C)CSCc1cc(n(C)n1)CSc1cc(c3ccccc3c1)OCCCc1c(C(=O)O)n(C)c3c-2c(Cl)ccc13 [AZD5991] + CC1(C)CCC(CN2CCN(c3ccc(C(=O)NS(=O)(=O)c4ccc(NCC5CCOCC5)c([N+](=O)[O-])c4)c(Oc4cnc5[nH]ccc5c4)c3)CC2)=C(c2ccc(Cl)cc2)C1 [Venetoclax] (first compound max 1 µM, 7x7, partner max 1 µM) | 0.152 | 0.954 | 0.934 | 0.479 | 0.351 | 0.748 | 0.955 | 0.343 | 0.209 | 0.205 | 0.237 | 1 | 0.0382 | 0.0514 | 0.035 | 0.049 | 0.0246 | -0.0063 | 0.0428 | 0.0312
5 | Cc1c2c(nn1C)CSCc1cc(n(C)n1)CSc1cc(c3ccccc3c1)OCCCc1c(C(=O)O)n(C)c3c-2c(Cl)ccc13 [AZD5991] + C1CN(CCC1(C(=O)N[C@@H](CCO)C2=CC=C(C=C2)Cl)N)C3=NC=NC4=C3C=CN4 [Capivasertib] (first compound max 1 µM, 7x7, partner max 3 µM) | 0.488 | 1 | 0.966 | 0.182 | 0.746 | 0.906 | 1 | 0.36 | 0.634 | 0.299 | 0.415 | 1 | 0.0353 | -0.041 | 0.0508 | 0.0267 | -0.0533 | -0.0192 | -0.001 | -0.0295
6 | CCN(CCO)CCCOc1ccc2c(Nc3cc(CC(=O)Nc4cccc(F)c4)[nH]n3)ncnc2c1 [AZD2811] + C=CCn1c(=O)c2cnc(Nc3ccc(N4CCN(C)CC4)cc3)nc2n1-c1cccc(C(C)(C)O)n1 [AZD1775] (first compound max 1 µM, partner max 1 µM) | 0.205 | 0.859 | 0.752 | 0.96 | 0.125 | 0.439 | 0.634 | 0.41 | 0.591 | 0.574 | 0.716 | 0.931 | 0.0733 | -0.0233 | -0.0544 | 0.0662 | 0.0258 | 0.0143 | -0.0289 | -0.013
